Results taken from article PMC10025185, “A continuous in silico learning strategy to identify safety liabilities in compounds used in the leather and textile industry” (Archives of Toxicology, 2023).
Where two headings read alike, the source gives them in different places.

Legend:
Bhas 42 cell line = assay: Bhas 42 cell transformation assay (carcinogenesis); type: cell-based
Protocol: This assay was carried out by adapting the in vitro Bhas 42 cell transformation assay method described in the OECD Guidance Document No. 231 ([2017]) based on the work of Sasaki et al. ([2014]).
It consists of two assays with a different test compound addition schedule to identify compounds with initiating activity (tumour initiators) or promoting activity (tumour promoters). Previously, a cell growth assay for 7 days is performed to set the assay doses of the CTA and another cell growth assay is concurrently performed to the CTA to verify that the selected doses meet the acceptance criteria for the tests.
The carcinogenesis potential of the compound was assayed by means of measuring the frequency of transformed foci (morphologically altered cells that form discrete anchorage-independent colonies) in the Bhas 42 cell line, which can be extrapolated to an assessment of carcinogenic potential. In the transformation assay, the incubation of compounds with two different treatment schedules allowed to identify the initiating or promoting carcinogenic potential of the compounds.

[1] = tested on: androgen and oestrogen receptors; assay: ED assays of androgen and oestrogen receptors (overall experimental ED result); type: cell-based
Protocol: The transcriptional activation of androgen receptor (AR) assays was carried out by adapting the OECD protocol 458 (OECD [2020]).
MDA-MB-453 cells (8000 cells/well) expressing an AR luciferase reporter were seeded into 384 white plates (Greiner 781098) in culture medium (DMEM (ATCC), 10% foetal bovine serum (Sigma Aldrich), 1% penicillin–streptomycin (Sigma-Aldrich), 75 µg/ml geneticin (Gibco) and incubated overnight at 37 °C 5% CO2 and 95% humidity. After this time, the cell culture medium was discarded and replaced by assay medium (DMEM (ATCC), 0.1% foetal bovine serum (Sigma-Aldrich), and 1% penicillin–streptomycin (Sigma Aldrich)).
For studying a putative agonist effect, compounds were added to the assay plate using an Echo 550 acoustic liquid handler and incubated overnight at 37 °C 5% CO2 and 95% humidity. For studying the putative antagonist effect, compounds were added using an Echo 550 acoustic liquid handler and incubated for 15 min at 37 °C 5% CO2 and 95% humidity. Then, 1 nM 5α-dihydrotestosterone (DHT) was added, and the cell plate was incubated overnight at 37 °C, 5% CO2, and 95% humidity. After compound incubation, the cell medium was removed, 5 µl of lysis buffer 1X (Promega) was added, and the cell plate was incubated with agitation 15 min at room temperature. A freeze–thaw cycle of 10 min at −80 °C and room temperature was performed. Then 25 µl of luciferase assay reagent (Promega) was added and luminescence was determined on an EnSpire plate reader (Perkin Elmer). Data was fitted to a four-parameter sigmoidal model with Prism 5.1 (Graphpad, Inc).
The transcriptional activation of oestrogen receptor (ER) assay was carried out by adapting the OECD protocol 455 (OECD [2021]) and the method of Li et al. ([2013]).
ER luciferase reporter T47D cells (5000 cells/well) were seeded into 384 white plates (Greiner 781098) in culture medium (RPMI 1640 (Thermo Fisher Scientific 52400), 10% foetal bovine serum (Sigma Aldrich F9665), 1% penicillin–streptomycin (Sigma-Aldrich P0781), 75 µg/ml Geneticin (Gibco 10131)) and incubated overnight at 37 °C and 5% CO2. The following day, the cell culture medium was discarded and replaced by assay medium (RPMI 1640 (Thermo Fisher Scientific 52,400), 0.1% foetal bovine serum (Sigma Aldrich F9665), and 1% penicillin–streptomycin (Sigma Aldrich P0781).
The assay was performed as stated before for the AR assay using 17β-estradiol as agonist instead of DHT.
ED was assessed by transactivation in vitro assays to identify agonists and antagonists of the androgen and oestrogen receptors.
Also, the experimental group analysed the endocrine-disrupting activity for the CMR compounds.

[2] = tested on: CHO-K1 (Chinese hamster ovary cells); type: cell-based; settings: 6 h with or without S9, 24 h without S9
Protocol: The in vitro micronucleus test is a genotoxicity test for the detection of micronuclei in the cytoplasm of interphase cells. Tests were conducted in the presence of the cytokinesis blocker cytochalasin B with three different treatment schedules: (i) short treatment for 6 h; (ii) short treatment for 6 h in the presence of an exogenous source of metabolic activation (cofactor supplemented S9 liver fraction); and (iii) extended treatment for 24 h.
CHO-K1 (Chinese hamster ovary cells, ATCC Item Number CCL-61) were cultured in DMEM F-12 containing 10% foetal bovine serum and 100 units/ml penicillin/100 μg/ml streptomycin (all from Sigma-Aldrich, St Louis, USA). Cells were seeded at 3000 cells/well in a collagen-coated 96-well plate in 100 μl. After 24 h, cells were incubated with CellTracker Orange CMTMR cellular dye solution (Invitrogen, Waltham, USA) for 1 h. Cells were then treated with compounds for 6 h, with or without S9 metabolic activation, or 24 h without S9 metabolic activation. […] After the 6-h compound treatment, cells were incubated with cytochalasin B (Alfa Aesar, Kandel, Germany) for 24 h. In case of 24-h treatment, cells were incubated with compounds in the presence of cytochalasin B and harvested after treatment. Benzo(a)pyrene, mitomycin C, and colchicine were used as positive controls for 6 h, with or without metabolic activation or 24 h treatments, respectively. […] After several washes with BupH-modified DPBS, cells were analysed in an Operetta High-Content Imaging System (PerkinElmer, Waltham, USA). […] Statistical significance was determined with the ANOVA test with significance level adjusted to p < 0.05.

[3] = CMR experimental result (carcinogenicity, micronucleus and reprotoxicity combined, logical OR)
Description: For comparison with the prediction results, the results of the carcinogenicity, micronucleus, and reprotoxicity assays were combined using a logical OR operator. Therefore, we consider that compounds with a positive result for any of these three experimental assays is a CMR positive.

[4] = significant increase in foci frequency in at least two sequential concentrations
[5] = positive in any of the three experimental assays

Compound	Carcinogen (C) (Bhas 42 cell line)	Experimental result [1]	Micronucleus assay (M) [2]	CMR experimental result [3]	Carcinogen (C) (Bhas 42 cell line; [4])	Experimental result ([1]; endocrine disruptor yes/no)	CMR experimental result [3, 5]
CCCCC(CC)CN (stereo not drawn) [2-Ethylhexylamine]	Yes	Yes	Negative	–	–	–	–
CNC(=O)c1cc(Cl)ccn1.Cl [4-Chloro-N-methylpyridine-2-carboxamide hydrochloride (1:1)]	No	No	Negative	NO	–	–	–
CCN(CC)c1ccc(N=Nc2c(Cl)cc([N+](=O)[O-])cc2[N+](=O)[O-])c(NC(C)=O)c1 [N-[2-[(2-chloro-4,6-dinitrophenyl)azo]-5-(diethylamino)phenyl]acetamide]	–	–	Negative	–	Yes	Yes	YES
O=C(OCCc1ccccc1)c1ccccc1 [Phenethyl benzoate]	No	No	Negative	–	–	–	–
Reaction mass of cis-4-(isopropyl) cyclohexanemethanol and trans-4-(isopropyl) cyclohexanemethanol	–	–	Negative	–	Yes	No	YES
